Laboratory results reported in PubChem BioAssay (NCI).
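Assay format: 96-well plates, 48-hour exposure. GI50 is the concentration that inhibits growth by half. TGI is the concentration that stops growth completely.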

Legend:
Assay in all cases: NCI anticancer screen, dose series, 48 h
A498 renal = test system: A498 renal
A549 NSCLC = test system: A549 NSCLC
COLO 205 colon = test system: COLO 205 colon
HCT-15 colon = test system: HCT-15 colon
HT29 colon = test system: HT29 colon
KM20L2 colon = test system: KM20L2 colon
MOLT-4 leukemia = test system: MOLT-4 leukemia
SK-MEL-28 melanoma = test system: SK-MEL-28 melanoma
HCC-2998 colon = test system: HCC-2998 colon
MCF7 breast = test system: MCF7 breast

Row | Structure (SMILES) | TGI (A498 renal) | TGI (A549 NSCLC) | TGI (COLO 205 colon) | TGI (HCT-15 colon) | TGI (HT29 colon) | TGI (KM20L2 colon) | TGI (MOLT-4 leukemia) | TGI (SK-MEL-28 melanoma) | TGI (HCC-2998 colon) | TGI (MCF7 breast) | GI50 (A498 renal) | GI50 (A549 NSCLC) | GI50 (COLO 205 colon) | GI50 (HCC-2998 colon) | GI50 (HCT-15 colon) | GI50 (HT29 colon) | GI50 (MCF7 breast) | GI50 (MOLT-4 leukemia) | GI50 (SK-MEL-28 melanoma)
1 | O=Cc1ccc(CCl)cc1 | 85.8 µM | > 100 µM | > 100 µM | 31.9 µM | 34.2 µM | 61.8 µM | > 100 µM | 32.9 µM |  |  |  |  |  |  |  |  |  |  | 
2 | COC(=O)C1=C(OC(=O)/C=C/c2ccc(Cl)cc2)C(C(=O)OC)[C@@]2(O)[C@@H](C(=O)OC)[C@H](C)C[C@@H]1[C@@H]2C(=O)OC (stereo not given in full) |  | > 100 µM | 40.7 µM | 57 µM | 65.8 µM |  | 96.4 µM | 88.7 µM |  |  |  |  |  |  |  |  |  |  | 
3 | COC1(O)c2cccc(Cl)c2C(=O)N1C1(C(N)=O)CCCCC1 (stereo not given) | > 100 µM | > 100 µM | > 100 µM | > 100 µM | > 58 µM | > 100 µM | > 100 µM | > 100 µM | > 100 µM | > 100 µM |  |  |  |  |  |  |  |  | 
4 | CSc1nc2c(ncn2C2OCC(O)C(O)C2O)c(=O)n1C (stereo not given) | > 100 µM | > 100 µM | > 100 µM | > 100 µM | > 100 µM | > 100 µM | > 100 µM | > 100 µM | > 100 µM | > 100 µM |  |  |  |  |  |  |  |  | 
5 | COc1cc2c(cc1OC)C(=O)/C(=C/c1cc(OC)c(OC)c(OC)c1)C2 | > 100 µM |  | > 100 µM | > 100 µM | > 100 µM |  | > 100 µM | > 100 µM |  | > 100 µM |  |  |  |  |  |  |  |  | 
6 | CN1CCN(Cc2ccc(NC(=O)c3cccc(C#Cc4cnc(N)c5ncccc45)c3F)cc2C(F)(F)F)CC1 | 4.61 µM | 1.58 µM | 6.07 µM | 1.35 µM | 1.53 µM |  | 3.06 µM | 1.59 µM | 1.6 µM | 1.72 µM | 1.59 µM | 0.747 µM | 1.17 µM | 0.834 µM | 0.546 µM | 0.677 µM | 0.793 µM | 0.77 µM | 0.848 µM
7 | CC(=O)NC(Cc1ccsc1)C(=O)O (stereo not given) | > 100 µM | > 100 µM | > 100 µM | > 100 µM | > 100 µM | > 100 µM | > 100 µM | > 100 µM | > 100 µM | > 100 µM |  |  |  |  |  |  |  |  | 
8 | COc1cccc(NC(=O)C(=O)C(C(=O)c2ccccc2F)C2OC(=O)c3ccccc32)c1 (stereo not given) | > 100 µM | > 100 µM | 39.5 µM | > 100 µM | > 100 µM | > 100 µM | > 100 µM | > 100 µM | 39.2 µM |  |  |  |  |  |  |  |  |  | 
9 | COC(=O)C(C/C=C(\C)c1ccc(Cl)cc1)C(C)=O (stereo not given) | > 100 µM | > 90.6 µM | > 100 µM | > 100 µM | > 77.1 µM | > 100 µM | 41.2 µM | > 100 µM | > 100 µM | > 100 µM |  |  |  |  |  |  |  |  | 
10 | COc1ccc2[nH]c3c(C)c4ccnc(NCCCN(C)CCCNc5ccc6ncn7c8ccccc8c(=O)c5c67)c4c(C)c3c2c1 | 15.2 µM | 1.48 µM | 4.36 µM | 3.45 µM | 1.03 µM |  | 3.13 µM | 21.9 µM |  | 2.61 µM |  |  |  |  |  |  |  |  | 
11 | O=C(O)C12CCCCC1CCCC2 (stereo not given) | > 100 µM | > 100 µM | > 100 µM | > 100 µM | > 100 µM | > 100 µM | > 100 µM | > 100 µM | > 100 µM |  |  |  |  |  |  |  |  |  | 
